Measurements as given in patent US20260248881A1, “PHARMACEUTICAL COMPOSITION COMPRISING FOXM1 INHIBITOR AND IMMUNE CHECKPOINT INHIBITOR FOR PREVENTING OR TREATING CANCER” (National Cancer Center, priority 2022, published 2026).

Tests used:
[1] = system: PD-L1; test: PD-L1 expression on cell membrane of H1299 and PC9 cells (immunocytochemistry, Western blot); type: cell-based, human; conditions: for PD-L1 expression restoration on the cell membrane by FOXM1 overexpression, by: TST 5 μM 48 hours in the presence of IFNγ; for reduction in the PD-L1 levels (cell membrane): TST in the presence of IFNγ, vs DMSO control
Description: (§1) Cells were lysed in RIPA buffer supplemented with complete mini protease inhibitor cocktail (#04693124001; Roche, Basel, Switzerland) and kept on ice for 30 minutes. Equal amounts of protein were evenly loaded and analyzed by sodium dodecyl sulfate-polyacrylamide gel electrophoresis (SDS-PAGE), and transferred to polyvinylidene difluoride (PVDF) membranes (#IPVH 00010; Millipore, Billerica, MA, USA) at 100 V for 1 hour. Primary antibodies (Santa Cruz Biotechnology, Texas, USA) specific for FOXM1 (#sc-271746), cyclin E1 (#sc-481), α-tubulin (#sc-8035), and β-actin (#sc-47778); PD-L1 (#13684S), cyclin D1 (#2978S), cyclin B1 (#4138S), c-MYC (#5605S), and poly(ADP-ribose) polymerase (PARP, #9542S; Cell Signaling Technology, Beverly, MA, USA) were used to probe proteins of interest. A horseradish-peroxidase-conjugated secondary antibodies specific to the primary antibody was used to detect proteins using pico-enhanced chemiluminescence substrate (#34577; Thermo Fisher Scientific).
Cells were fixed in 4% paraformaldehyde (#30525-89-4; FUJIFILM Wako Chemical, Wako, Japan) for 15 minutes and blocked with 1% bovine serum albumin (BSA) in phosphate-buffered saline-0.01% Tween-20 (PBS-T) to reduce nonspecific antibody binding. Cells were then incubated overnight with an anti-PD-L1 antibody (#14598382; eBioscience, San Diego, CA, USA) diluted 1:200 and an anti-FOXM1 antibody (#sc-271746; Santa Cruz Biotechnology) diluted 1:50, followed by incubation with an Alexa Fluor 488-labeled secondary antibody (#A11029; Thermo Fisher Scientific) for 1 hour. Nuclei were stained with Hoechst 33342. After incubation, cells were washed with PBS and mounted on glass slides using Prolong Glass Antifade mounting medium (#P36982; Thermo Fisher Scientific). Confocal microscopy was performed using a Zeiss 730 Meta microscope (Carl Zeiss, Oberkochen, Germany) and analyzed using Axiovision software (Carl Zeiss).

[2] = molecular target: T1, FOXM1 (Homo sapiens, UniProt Q08050); test: FOXM1 inhibitors tested in H1299 and PC9 cells (FOXM1 levels); type: cell-based
T1 construct: host or cells: H1299 and PC9 cells
T1 sequence (Q08050 1-763): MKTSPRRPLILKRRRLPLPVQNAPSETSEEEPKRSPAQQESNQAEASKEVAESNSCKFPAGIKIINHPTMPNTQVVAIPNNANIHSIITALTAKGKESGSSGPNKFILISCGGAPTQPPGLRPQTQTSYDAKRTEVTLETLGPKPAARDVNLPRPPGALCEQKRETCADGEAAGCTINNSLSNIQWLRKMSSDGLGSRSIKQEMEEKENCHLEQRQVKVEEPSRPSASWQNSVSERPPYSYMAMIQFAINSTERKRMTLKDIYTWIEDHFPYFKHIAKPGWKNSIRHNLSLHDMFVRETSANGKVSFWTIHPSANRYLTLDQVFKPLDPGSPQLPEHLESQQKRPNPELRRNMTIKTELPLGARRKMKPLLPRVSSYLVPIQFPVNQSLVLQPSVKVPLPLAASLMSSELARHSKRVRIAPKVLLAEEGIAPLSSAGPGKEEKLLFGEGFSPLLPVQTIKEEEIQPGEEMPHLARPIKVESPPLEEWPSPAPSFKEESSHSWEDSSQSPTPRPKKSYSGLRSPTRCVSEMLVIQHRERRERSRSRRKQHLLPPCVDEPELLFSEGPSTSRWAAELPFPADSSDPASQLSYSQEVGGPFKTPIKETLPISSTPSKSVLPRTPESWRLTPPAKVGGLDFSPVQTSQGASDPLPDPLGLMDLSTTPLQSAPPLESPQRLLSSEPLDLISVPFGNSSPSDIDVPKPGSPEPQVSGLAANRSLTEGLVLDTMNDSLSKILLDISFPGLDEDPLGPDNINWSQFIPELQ
Description: H1299 and PC9 cells purchased from ATCC (Manassas, VA, USA) were cultured in RPMI-1640 medium (#10-040-CV; Corning, New York, NY, USA) supplemented with 10% […] (#35-010-CV; Corning) and penicillin-streptomycin antibiotic cocktail (#15240062; Thermo Fisher Scientific, Waltham, MA, USA) at 37° C. and 5% CO2.
Total RNA was extracted and purified using the RNeasy kit (#74004; QIAGEN) according to the manufacturer's protocol. Reverse transcription of mRNA was performed using a PrimeScript 1st Strand CDNA Synthesis Kit (#6110A; TaKaRa Bio, Otsu, Japan). Quantitative PCR was performed using primers specific for the CD274 and FOXM1 genes designed using Primer 3 software. A β-actin gene was used as an internal control group to normalize target gene expression.

[3] = system: FOXM1 and PD-L1; test: Immunoblotting of FOXM1 and PD-L1 in human colorectal cancer cell lines; type: cell-based; conditions: 5 μM TST; HCT8, HCT116, and SW480
Description: Human colorectal cancer cell lines (HCT116, HCT8, and SW480) and human primary coronary artery smooth muscle cells (SMCs) were purchased from the American Type Culture Collection (Manassas, VA, USA), and a MC38 mouse colorectal adenocarcinoma cell line was provided by Dr. Beom-Kyu Choi (National Cancer Center, Goyang, Republic of Korea). MC38 cells were cultured in Dulbecco's modified Eagle's medium (DMEM) supplemented with 10% FBS and 1% penicillin/streptomycin. SW480 and HCT8 cells were cultured in Roswell Park Memorial Institute (RPMI) medium supplemented with 10% FBS and 1% penicillin/streptomycin. HCT116 cells were maintained in McCoy's 5A medium supplemented with 10% FBS and 1% penicillin/streptomycin. Cells were maintained at 37° C. in a humidified incubator with 5% CO2.
For immunoblotting analysis, protein concentrations were measured using a bicinchoninic acid kit (Cat. 23225; Thermo Fisher Scientific, Carlsbad, CA, USA). Proteins were separated by SDS-PAGE electrophoresis. […] The appropriate secondary antibodies conjugated to horseradish peroxidase were bound to the washed membrane, and protein bands were detected using a chemiluminescence kit (Thermo Fisher Scientific, Carlsbad, CA, USA).

[4] = system: c-MYC, cyclin B1, cyclin E1, and cyclin D1; test: Western blot of c-MYC and cyclins in H1299 and PC9 cells; type: cell-based, human; conditions: both cell lines
Description: as §1

Substance: thiostrepton [TST]
- elevated level of PD-L1 by pFLAG-FOXM1 overexpression decreased to ([1]; H1299): 41.9%
- PD-L1 expression restoration on the cell membrane by FOXM1 overexpression, by ([1]; H1299): 38.7%
- reduction in the PD-L1 levels (cell membrane) ([1]; H1299): 87.23%
- elevated level of PD-L1 by pFLAG-FOXM1 overexpression decreased to ([1]; PC9): 68.0%
- PD-L1 expression restoration on the cell membrane by FOXM1 overexpression, by ([1]; PC9): 46%
- reduction in the PD-L1 levels (cell membrane) ([1]; PC9): 85.82%
- FOXM1 levels [2]: the most effective inhibitor, significantly reducing FOXM1 levels
- FOXM1 and PD-L1 levels [3]: significantly decreased both FOXM1 and PD-L1 levels
- protein levels of c-MYC, cyclin B1, and cyclin D1 [4]: significantly decreased
